{"source": "patent EP0966282B1", "about": "“USE OF THE ANGIOTENSIN II ANTAGONISTS LOSARTAN AND EXP-3174 TO TREAT SYMPTOMATIC HEART FAILURE” (priority 1997, dated 1998)", "system": "older patients with symptomatic heart failure", "conditions": "for hospitalized overall for any reason: 48-week study observation period, p=0.018", "excerpt": "The study was approved by institutional review boards at each site; all patients gave written informed consent. An independent Data and Safety Monitoring Committee monitored the progress of the study. See Pitt B, Chang P, Timmermans P. Angiotensin II receptor antagonists in heart failure: Rationale and design of the Evaluation of Losartan in the Elderly (ELITE) Trial. Cardiovascular Drugs and Therapy 1995; 9: 693-700.\nA detailed description of enrollment and exclusion criteria and study design has been presented previously. See Pitt B, Chang P, Timmermans P. Angiotensin II receptor antagonists in heart failure: Rationale and design of the Evaluation of Losartan in the Elderly (ELITE) Trial. Cardiovascular Drugs and Therapy 1995; 9: 693-700.\nTitration generally occurred at 7-day intervals as tolerated. Treatment with all other concomitant cardiovascular therapies was permitted with the exception of open-label ACE inhibitors. Randomized patients were stratified by age (less than 70 and 70 years or greater).\nClinical assessments were performed weekly during titration and at three-month intervals thereafter. Laboratory evaluations were performed at weeks three, six, and twelve, and at three month intervals thereafter.\nSee Example 2) Hypotension-related symptoms, clinically important serum potassium increases (≥ 0.5 mEq/L), and cough, all originally secondary endpoints, were moved to tertiary endpoints. All deaths (including cause of death) and hospitalizations were adjudicated by an independent Clinical Endpoint Adjudication Committee, blinded to study treatment (see panel for mortality classification). Other prospectively-defined measures included myocardial infarction/hospitalization for unstable angina, worsening of heart failure, New York Heart Association functional classification, discontinuation from the study due to study drug intolerance, changes in neurohormonal profile.\n• Sudden Cardiac Death: Death occurring without warning or within 1 hour of symptoms • Death due to Progressive Heart Failure: Death preceded by worsening signs and/or symptoms of heart failure, including cardiogenic shock • Fatal Myocardial Infarction: Death associated with autopsy-verified myocardial infarction or death within 28 days of a hospital-verified acute myocardial infarction provided no other cardiac or non-cardiac cause of death is found • Death due to Other Cardiac Causes: Death due to other cardiac causes, such as arrhythmia • Death due to Other Vascular Causes: Death due to vascular events such as stroke, pulmonary embolus, ruptured aneurysm, etc. • Death due to non-cardiovascular causes: Death not due to any cardiac or vascular events\nThe power and sample-size estimates for this study have been described. See Pitt B, Chang P, Timmermans P. Angiotensin II receptor antagonists in heart failure: Rationale and design of the Evaluation of Losartan in the Elderly (ELITE) Trial. Cardiovascular Drugs and Therapy 1995; 9: 693-700. Analysis of renal dysfunction (increases in serum creatinine) was based upon a modified intent-to-treat population; i.e., all patients were analyzed according to their randomization group, and an endpoint was declared only if initial and confirmatory elevations occurred while on double-blind therapy. Patients who discontinued from the study without meeting this endpoint were censored in the time-to-event analysis at the time of study discontinuation.\nAnalyses of deaths and heart failure hospitalizations (adjudicated endpoints) were based on an intent-to-treat population; all patients discontinued prematurely were followed through the specified 48-week period of the study. Patients not meeting the endpoint were censored in the time-to-event analysis either at the time of study completion (for patients who completed) or at the end of the 48-week follow-up period (for patients who discontinued).\nFor all time-to-event data, survival analyses were based upon the log-rank test.", "note": "Read-outs that look alike come from different tables or passages of the source."}
{"molecule": "C[C@H](CS)C(=O)N1CCC[C@H]1C(=O)O", "note": "[Captopril, captopril, reference compound]", "values": [{"measurement": "hospitalized overall for any reason", "setting": "number of patients", "value": 119, "unit": "patients"}, {"measurement": "hospitalized overall for any reason", "value": 32.2, "unit": "%"}, {"measurement": "incidence of heart failure hospitalizations", "setting": "48 weeks", "value": 5.7, "unit": "%"}, {"measurement": "incidence of death due to progressive heart failure", "setting": "human, in vivo", "value": "less than one"}, {"measurement": "Cause of death: Cardiovascular, Fatal Myocardial Infarction", "setting": "intent-to-treat, 48 weeks", "value": "4 ( 1.1) number (percent) of patients"}, {"measurement": "Cause of death: Cardiovascular, Other Vascular", "setting": "intent-to-treat, 48 weeks", "value": "5 ( 1.4) number (percent) of patients"}, {"measurement": "Cause of death: Cardiovascular, Progressive Heart Failure", "setting": "intent-to-treat, 48 weeks", "value": "1 ( 0.3) number (percent) of patients"}, {"measurement": "Cause of death: Cardiovascular, Sudden Death", "setting": "intent-to-treat, 48 weeks", "value": "14 ( 3.8) number (percent) of patients"}, {"measurement": "Cause of death: Non-cardiovascular", "setting": "intent-to-treat, 48 weeks", "value": "8 ( 2.2) number (percent) of patients"}, {"measurement": "Death and/or Hospitalization for Heart Failure", "setting": "intent-to-treat, 48 weeks", "value": "49 (13.2) number (percent) of patients"}, {"measurement": "Hospitalization for Heart Failure", "setting": "intent-to-treat, 48 weeks", "value": "21 ( 5.7) number (percent) of patients"}, {"measurement": "total mortality", "setting": "intent-to-treat, 48 weeks", "value": "32 ( 8.7) number (percent) of patients"}, {"measurement": "Fatal myocardial infarction", "setting": "number of patients", "value": "four"}, {"measurement": "died of progressive heart failure", "setting": "number of patients in each treatment group", "value": "one"}, {"measurement": "total mortality", "setting": "number of patients, p=0.035", "value": 32, "unit": "patients"}, {"measurement": "sudden cardiac death", "setting": "number of patients, p=0.043", "value": 14, "unit": "patients"}, {"measurement": "death and/or heart failure hospitalizations", "setting": "of 352 losartan-treated, of 370 captopril-treated patients", "value": 49, "unit": "patients"}, {"measurement": "death and/or heart failure hospitalizations", "setting": "percent of patients, p=0.075", "value": 13.2, "unit": "%"}, {"measurement": "female patients died", "setting": "subpopulation of female patients: of 118 losartan-treated, of 122 captopril-treated", "value": 8, "unit": "patients"}, {"measurement": "patients classified as New York Heart Association Class I or II at the end of the study", "setting": "week 48, versus 66 percent (losartan) and 64 percent (captopril) at baseline", "value": 82, "unit": "%"}]}
